Patent publication US20240190880A1 (THE REGENTS OF THE UNIVERSITY OF MICHIGAN, priority 2021, published 2024)

Target: T1, ER (Homo sapiens, UniProt P03372)
T1 construct: host or cells: T47D and MCF7 human breast cancer cells
T1 sequence (P03372 1-595): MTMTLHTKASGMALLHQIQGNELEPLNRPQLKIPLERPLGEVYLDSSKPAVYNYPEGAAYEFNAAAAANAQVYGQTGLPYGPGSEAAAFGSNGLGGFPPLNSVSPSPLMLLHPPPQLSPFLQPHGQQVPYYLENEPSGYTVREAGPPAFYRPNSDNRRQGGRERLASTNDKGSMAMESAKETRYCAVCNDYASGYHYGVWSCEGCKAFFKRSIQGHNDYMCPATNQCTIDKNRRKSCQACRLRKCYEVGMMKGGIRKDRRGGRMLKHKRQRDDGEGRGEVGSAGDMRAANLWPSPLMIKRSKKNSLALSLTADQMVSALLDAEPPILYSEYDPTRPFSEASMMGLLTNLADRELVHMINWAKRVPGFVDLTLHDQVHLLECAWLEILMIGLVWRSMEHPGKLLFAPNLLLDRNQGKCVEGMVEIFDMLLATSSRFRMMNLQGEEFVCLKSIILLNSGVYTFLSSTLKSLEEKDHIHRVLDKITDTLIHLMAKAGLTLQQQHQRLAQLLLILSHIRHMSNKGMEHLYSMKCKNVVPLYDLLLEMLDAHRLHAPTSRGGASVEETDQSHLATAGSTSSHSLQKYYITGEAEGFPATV
Test: ER degradation activity, in-cell western blot analysis in T47D cells
Type: cell-based
Conditions: 16 hours, Table A does not say which cell line (T47D or MCF7), read-out: Potency (DC50)
Procedure, shortened: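 Cells were seeded overnight, exposed to diluted compounds for 16 hours, then stained with primary antibodies and with infrared-labelled secondary antibodies (1:1000, 1 h RT). Plates were scanned on a CLX reader, and ER levels were normalised to DMSO-treated wells.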

Structure (SMILES) | DC50
O=C1CCC(N2C(=O)c3cc4c(cc3C2=O)CN(CC(=O)N2CCC3(CC2)CCN(c2ccc([C@@H]5c6ccc(O)cc6CC[C@@H]5c5ccc(F)cc5)cc2)C3)C4)C(=O)N1 (stereo partly drawn) [E 186, 2-(2,6-dioxopiperidin-3-yl)-6-(2-(2-(4-((1R,2S)-2-(4-fluorophenyl)-6-hydroxy-1,2,3,4-tetrahydronaphthalen-1-yl)phenyl)-2,8-diazaspiro[4.5]decan-8-yl)-2-oxoethyl)-6,7-dihydropyrrolo[3,4-f]isoindole-1,3(2H,5H)-dione] | 10 to 100 nM
C[C@H]1Cc2c([nH]c3ccccc23)[C@H](c2c(F)cc(N3CC4(CCCN(C(=O)CN5Cc6cc7c(cc6C5)C(=O)N(C5CCC(=O)NC5=O)C7=O)C4)C3)cc2F)N1CC(F)F (stereo in doubt) [E 80, 6-(2-(2-(4-((1S,3S)-2-(2,2-difluoroethyl)-3-methyl-2,3,4,9-tetrahydro-1H-pyrido[3,4-b]indol-1-yl)-3,5-difluorophenyl)-2,6-diazaspiro[3.5]nonan-6-yl)-2-oxoethyl)-2-(2,6-dioxopiperidin-3-yl)-6,7-dihydropyrrolo[3,4-f]isoindole-1,3(2H,5H)-dione] | 10 to 100 nM
O=C1CCC(N2C(=O)c3cc4c(cc3C2=O)CN(C(=O)[C@H]2CC[C@H](CN3CC(Oc5ccc([C@@H]6c7ccc(O)cc7CC[C@@H]6c6ccccc6)cc5)C3)CC2)C4)C(=O)N1 (stereo partly drawn) [E 310, 2-(2,6-dioxopiperidin-3-yl)-6-((1R,4r)-4-((3-(4-((1R,2S)-6-hydroxy-2-phenyl-1,2,3,4-tetrahydronaphthalen-1-yl)phenoxy)azetidin-1-yl)methyl)cyclohexane-1-carbonyl)-6,7-dihydropyrrolo[3,4-f]isoindole-1,3(2H,5H)-dione] | > 100 nM
O=C1CCC(N2C(=O)c3cc4c(cc3C2=O)CN(CC(=O)N2CCC3(CC2)CCN(c2ccc([C@@H]5c6ccc(O)cc6CC[C@@H]5c5ccccc5)cc2)CC3)C4)C(=O)N1 (stereo partly drawn) [E 149, 2-(2,6-dioxopiperidin-3-yl)-6-(2-(9-(4-((1R,2S)-6-hydroxy-2-phenyl-1,2,3,4-tetrahydronaphthalen-1-yl)phenyl)-3,9-diazaspiro[5.5]undecan-3-yl)-2-oxoethyl)-6,7-dihydropyrrolo[3,4-f]isoindole-1,3(2H,5H)-dione] | < 10 nM
C[C@@H]1Cc2cc(O)ccc2[C@@H](c2c(F)cc(N3CCC4(CN(C(=O)CN5Cc6cc7c(cc6C5)C(=O)N(C5CCC(=O)NC5=O)C7=O)C4)C3)cc2F)N1CC(F)F (stereo partly drawn) [E 44, 6-(2-(6-(4-((1S,3R)-2-(2,2-difluoroethyl)-6-hydroxy-3-methyl-1,2,3,4-tetrahydroisoquinolin-1-yl)-3,5-difluorophenyl)-2,6-diazaspiro[3.4]octan-2-yl)-2-oxoethyl)-2-(2,6-dioxopiperidin-3-yl)-6,7-dihydropyrrolo[3,4-f]isoindole-1,3(2H,5H)-dione] | 10 to 100 nM
C[C@@H]1Cc2c([nH]c3ccccc23)[C@@H](c2c(F)cc(N3CCC(N4CC(CC(=O)N5Cc6cc7c(cc6C5)C(=O)N(C5CCC(=O)NC5=O)C7=O)C4)CC3)cc2F)N1CC(F)F (stereo partly drawn) [E 55, 6-(2-(1-(1-(4-((1R,3R)-2-(2,2-difluoroethyl)-3-methyl-2,3,4,9-tetrahydro-1H-pyrido[3,4-b]indol-1-yl)-3,5-difluorophenyl)piperidin-4-yl)azetidin-3-yl)acetyl)-2-(2,6-dioxopiperidin-3-yl)-6,7-dihydropyrrolo[3,4-f]isoindole-1,3(2H,5H)-dione] | > 100 nM
C[C@@H]1Cc2c([nH]c3ccccc23)[C@@H](c2c(F)cc(N3CC[C@@H](CN4CCC(C(=O)N5Cc6cc7c(cc6C5)C(=O)N(C5CCC(=O)NC5=O)C7)CC4)C3)cc2F)N1CC(F)F (stereo partly drawn) [E 90, 3-(6-(1-(((S)-1-(4-((1R,3R)-2-(2,2-difluoroethyl)-3-methyl-2,3,4,9-tetrahydro-1H-pyrido[3,4-b]indol-1-yl)-3,5-difluorophenyl)pyrrolidin-3-yl)methyl)piperidine-4-carbonyl)-1-oxo-3,5,6,7-tetrahydropyrrolo[3,4-f]isoindol-2(1H)-yl)piperidine-2,6-dione] | < 10 nM
O=C1CCC(N2C(=O)c3cc4c(cc3C2=O)CN(CC(=O)NC2CCN(c3ccc([C@@H]5c6ccc(O)cc6CC[C@@H]5c5ccccc5)cc3)CC2)C4)C(=O)N1 (stereo partly drawn) [E331, 2-(6-(2,6-dioxopiperidin-3-yl)-5,7-dioxo-3,5,6,7-tetrahydropyrrolo[3,4-f]isoindol-2(1H)-yl)-N-(1-(4-((1R,2S)-6-hydroxy-2-phenyl-1,2,3,4-tetrahydronaphthalen-1-yl)phenyl)piperidin-4-yl)acetamide] | > 100 nM
O=C1CCC(N2C(=O)c3cc4c(cc3C2=O)CN(C(=O)CN2CCC3(CC2)CCN(c2c(F)cc([C@@H]5c6ccc(O)cc6CC[C@@H]5c5ccccc5)cc2F)C3)C4)C(=O)N1 (mixture of isomers) [E 155, Rac-6-(2-(2-(2,6-difluoro-4-((1R,2S)-6-hydroxy-2-phenyl-1,2,3,4-tetrahydronaphthalen-1-yl)phenyl)-2,8-diazaspiro[4.5]decan-8-yl)acetyl)-2-(2,6-dioxopiperidin-3-yl)-6,7-dihydropyrrolo[3,4-f]isoindole-1,3(2H,5H)-dione] | > 100 nM

Same assay, conditions: compounds 16 hours, Table A does not say whether T47D or MCF7, read-out: Potency (DC50)

Structure (SMILES) | DC50
C[C@@H]1Cc2c([nH]c3ccccc23)[C@@H](c2ccc(C3CCC(C(=O)N4CCC(N5Cc6cc7c(cc6C5)C(=O)N(C5CCC(=O)NC5=O)C7=O)CC4)CC3)c(F)c2)N1CC(F)F (stereo partly drawn) [E 475, 6-(1-(4-(4-((1R,3R)-2-(2,2-difluoroethyl)-3-methyl-2,3,4,9-tetrahydro-1H-pyrido[3,4-b]indol-1-yl)-2-fluorophenyl)cyclohexane-1-carbonyl)piperidin-4-yl)-2-(2,6-dioxopiperidin-3-yl)-6,7-dihydropyrrolo[3,4-f]isoindole-1,3(2H,5H)-dione] | 10 to 100 nM
C[C@@H]1Cc2c([nH]c3ccccc23)[C@@H](c2ccc(C3=CCC(C(=O)N4CCC(N5Cc6cc7c(cc6C5)C(=O)N(C5CCC(=O)NC5=O)C7=O)CC4)CC3)cc2F)N1CC1(F)CC1 (stereo partly drawn) [E 486, 2-(2,6-dioxopiperidin-3-yl)-6-(1-(3′-fluoro-4′-((1R,3R)-2-((1-fluorocyclopropyl)methyl)-3-methyl-2,3,4,9-tetrahydro-1H-pyrido[3,4-b]indol-1-yl)-2,3,4,5-tetrahydro-[1,1′-biphenyl]-4-carbonyl)piperidin-4-yl)-6,7-dihydropyrrolo[3,4-f]isoindole-1,3(2H,5H)-dione] | > 100 nM
C[C@@H]1Cc2cc(O)ccc2[C@@H](c2c(F)cc(C3=CCC4(CC3)CCN(C(=O)CN3Cc5cc6c(cc5C3)C(=O)N(C3CCC(=O)NC3=O)C6=O)CC4)cc2F)N1CC(F)F (stereo partly drawn) [E 446, 6-(2-(9-(4-((1S,3R)-2-(2,2-difluoroethyl)-6-hydroxy-3-methyl-1,2,3,4-tetrahydroisoquinolin-1-yl)-3,5-difluorophenyl)-3-azaspiro[5.5]undec-8-en-3-yl)-2-oxoethyl)-2-(2,6-dioxopiperidin-3-yl)-6,7-dihydropyrrolo[3,4-f]isoindole-1,3(2H,5H)-dione tetrahydroisoquinolin] | > 100 nM
C[C@@H]1Cc2cc(O)ccc2[C@H](c2c(F)cc(OC3CC4(CCN(C(=O)CN5Cc6cc7c(cc6C5)C(=O)N(C5CCC(=O)NC5=O)C7=O)CC4)C3)cc2F)N1CC(F)F (stereo partly drawn) [E 456, 6-(2-(2-(4-((1R,3R)-2-(2,2-difluoroethyl)-6-hydroxy-3-methyl-1,2,3,4-tetrahydroisoquinolin-1-yl)-3,5-difluorophenoxy)-7-azaspiro[3.5]nonan-7-yl)-2-oxoethyl)-2-(2,6-dioxopiperidin-3-yl)-6,7-dihydropyrrolo[3,4-f]isoindole-1,3(2H,5H)-dione] | > 100 nM
